Experimental data published in article PMC9270327 (Communications Biology, 2022).
Where a SMILES comes first, the peptide text is derived from it. The star is where a group is joined. AMC = Cc1cc(=O)oc2cc(N*)ccc12; Boc = CC(C)(C)OC(=O)*

Tests used:
[1] = target: T1, recombinant human matriptase (Homo sapiens, UniProt Q9Y5Y6); test: Enzyme inhibition assay with purified matriptase (Ki, dose-response); assay type: biochemical; conditions: for matriptase activity, Mean (Fig. 2b): normalized, 0 nM = 100
T1 construct: purchased R&D Systems (Minneapolis, MN, USA)
T1 sequence (Q9Y5Y6 1-855): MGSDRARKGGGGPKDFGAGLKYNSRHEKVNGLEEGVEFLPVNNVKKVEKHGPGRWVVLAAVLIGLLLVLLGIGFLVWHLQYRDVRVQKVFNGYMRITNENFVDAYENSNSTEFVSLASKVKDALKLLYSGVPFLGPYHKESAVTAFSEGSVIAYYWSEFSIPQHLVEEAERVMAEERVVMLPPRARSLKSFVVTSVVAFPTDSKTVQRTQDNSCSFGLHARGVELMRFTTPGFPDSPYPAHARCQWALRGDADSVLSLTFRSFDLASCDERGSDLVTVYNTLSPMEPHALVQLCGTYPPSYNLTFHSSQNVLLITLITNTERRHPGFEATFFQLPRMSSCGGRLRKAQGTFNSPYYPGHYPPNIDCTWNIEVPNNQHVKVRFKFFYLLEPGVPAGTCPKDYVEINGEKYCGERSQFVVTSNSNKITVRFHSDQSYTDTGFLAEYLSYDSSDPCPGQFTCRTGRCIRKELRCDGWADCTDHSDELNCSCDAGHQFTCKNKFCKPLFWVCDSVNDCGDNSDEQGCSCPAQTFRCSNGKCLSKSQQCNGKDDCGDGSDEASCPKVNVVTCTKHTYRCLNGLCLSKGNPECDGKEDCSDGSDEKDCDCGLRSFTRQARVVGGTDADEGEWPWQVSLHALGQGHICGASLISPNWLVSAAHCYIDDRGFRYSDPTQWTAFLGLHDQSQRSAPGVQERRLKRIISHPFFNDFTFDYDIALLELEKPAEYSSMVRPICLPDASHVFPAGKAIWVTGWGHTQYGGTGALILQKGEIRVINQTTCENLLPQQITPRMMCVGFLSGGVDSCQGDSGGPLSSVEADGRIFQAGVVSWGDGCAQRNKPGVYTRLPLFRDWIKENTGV

[2] = target: T2, factor Xa (Homo sapiens, UniProt P00742); test: Enzyme inhibition assay with purified factor Xa (Ki, dose-response); assay type: biochemical; conditions: for factor Xa activity, Mean (Fig. 2d): normalized, 0 nM = 100
T2 construct: purchased Bio-Techne GmbH (Wiesbaden, Germany)
From the text: (§1) Recombinant human TMPRSS2 was purchased from Creative BioMart (New York, USA) or LSBio (Seattle, USA), factor Xa was obtained from Bio-Techne GmbH (Wiesbaden, Germany). Recombinant human thrombin and matriptase protein were purchased from R&D Systems (Minneapolis, MN, USA).

[3] = target: T3, recombinant human thrombin (Homo sapiens, UniProt P00734); test: Enzyme inhibition assay with purified thrombin (Ki, dose-response); assay type: biochemical; conditions: for thrombin activity, Mean (Fig. 2c): normalized
T3 construct: purchased R&D Systems (Minneapolis, MN, USA)
From the text: as §1

[4] = target: TMPRSS2 (Homo sapiens, UniProt O15393); test: Michaelis-Menten constant of the fluorogenic reference substrate; conditions: read-out: Michaelis-Menten constant KM for TMPRSS2
Method: The measurements were performed on a Tecan infinite® M1000 and the fluorescence intensity was measured by exciting the AMC fluorophore at 380 nm wavelength and recording emission at 460 nm wavelength. […] Fluorescence intensities and absorption were measured every 2 min for 2 h or as endpoint after 2 h.
Supplementary Figure 2 Michaelis-Menten constant (KM) of the fluorogenic reference substrate
The data points were plotted using the Michaelis -Menten
equation in GraphPad Prism prism version 8.4.2 (San Diego, California). Shown are the means ± SD of
n=1 experiment performed in triplicates.

[5] = iv; cited from earlier work
[6] = 30 min preincubation, substrate Boc-Gln-Ala-Arg-AMC
[7] = 30 min preincubation, substrate Bz-Ile-Glu-Gly-Arg-pNA
[8] = 30 min preincubation, substrate D-Phe-Homopro-Arg-pNA

T2 sequence (P00742 235-488 limits assumed): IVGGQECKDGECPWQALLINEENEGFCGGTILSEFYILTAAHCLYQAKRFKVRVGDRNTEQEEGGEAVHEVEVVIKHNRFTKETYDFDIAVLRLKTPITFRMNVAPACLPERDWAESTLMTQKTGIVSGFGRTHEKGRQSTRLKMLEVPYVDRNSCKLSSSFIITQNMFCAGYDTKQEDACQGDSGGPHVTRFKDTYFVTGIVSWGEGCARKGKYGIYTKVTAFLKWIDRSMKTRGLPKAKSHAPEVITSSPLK
T2 sequence (P00742 41-179 partner limits assumed): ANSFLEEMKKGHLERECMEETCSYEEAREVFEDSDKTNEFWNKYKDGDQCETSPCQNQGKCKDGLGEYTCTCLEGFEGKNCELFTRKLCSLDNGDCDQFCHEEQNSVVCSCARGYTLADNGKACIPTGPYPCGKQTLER
TMPRSS2, sequence (O15393 whole entry): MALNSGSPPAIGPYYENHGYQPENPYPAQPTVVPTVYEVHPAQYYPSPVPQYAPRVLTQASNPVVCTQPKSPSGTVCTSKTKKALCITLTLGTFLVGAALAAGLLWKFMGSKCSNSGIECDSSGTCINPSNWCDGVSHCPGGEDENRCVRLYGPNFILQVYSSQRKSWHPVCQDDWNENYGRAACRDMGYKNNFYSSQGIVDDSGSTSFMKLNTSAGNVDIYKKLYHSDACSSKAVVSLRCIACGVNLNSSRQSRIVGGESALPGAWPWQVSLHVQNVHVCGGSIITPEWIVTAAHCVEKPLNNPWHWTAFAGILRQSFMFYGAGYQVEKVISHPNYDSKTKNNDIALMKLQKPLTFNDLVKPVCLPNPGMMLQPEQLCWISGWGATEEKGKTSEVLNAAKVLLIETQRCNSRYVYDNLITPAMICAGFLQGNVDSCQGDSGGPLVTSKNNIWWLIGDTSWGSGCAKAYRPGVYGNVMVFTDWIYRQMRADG

With `CC(=O)N[C@H](CCCNC(=N)N)C(=O)N[C@@H](CC1CCC1)C(=O)N[C@H](CO)CCCNC(=N)N` [Cpd. 7 alcohol] the “Ki Matriptase” value [1, 6] was “n.i”, the “matriptase activity, Mean (control = 100), S6a” value (“matriptase activity, Mean … S6a” below) ([1]; inhibitor 10 nM) was 90.4903 and the “matriptase activity, Mean … S6a” value ([1]; inhibitor 100 nM) was 101.634. The “matriptase activity, Mean … S6a” value ([1]; inhibitor 1000 nM) was 101.337, the “matriptase activity, Mean … S6a” value ([1]; inhibitor 50000 nM) was 91.3819 and the “matriptase activity, Mean … S6a” value ([1]; inhibitor 500000 nM) was 44.4279. For the same molecule, the “Ki Factor Xa” value [2, 7] was “n.i”, the “factor Xa activity, Mean (control = 100), S6c” value (“factor Xa activity, Mean … S6c” for short) ([2]; inhibitor 0.2 nM) was 93.6065 and the “factor Xa activity, Mean … S6c” value ([2]; inhibitor 2 nM) was 101.454. For the same molecule, the “factor Xa activity, Mean … S6c” value ([2]; inhibitor 20 nM) was 95.9299, the “factor Xa activity, Mean … S6c” value ([2]; inhibitor 200 nM) was 88.9574 and the “factor Xa activity, Mean … S6c” value ([2]; inhibitor 10000 nM) was 78.1999. For the same molecule, the “factor Xa activity, Mean … S6c” value ([2]; inhibitor 100000 nM) was 120.06, the “Ki Thrombin” value [3, 8] was “n.i” and the “thrombin activity, Mean (control = 100), S6b” value (“thrombin activity, Mean … S6b” for short) ([3]; inhibitor 0.2 nM) was 90.7019. For the same molecule, the “thrombin activity, Mean … S6b” value ([3]; inhibitor 2 nM) was 92.977, the “thrombin activity, Mean … S6b” value ([3]; inhibitor 20 nM) was 91.1965 and the “thrombin activity, Mean … S6b” value ([3]; inhibitor 200 nM) was 95.4993. The “thrombin activity, Mean … S6b” value ([3]; inhibitor 10000 nM) was 93.8672 and the “thrombin activity, Mean … S6b” value ([3]; inhibitor 100000 nM) was 91.2954.
With `Cc1cc(=O)oc2cc(NC(=O)[C@H](CCCN=C(N)N)NC(=O)[C@H](C)NC(=O)[C@H](CCC(N)=O)NC(=O)OC(C)(C)C)ccc12` [Boc-Gln-Ala-Arg-AMC] (Boc-Gln-Ala-Arg-{AMC}) the Km [4] was 77 µM.
In the case of `CC(=O)NC(CCCNC(=N)N)C(=O)NC(CC1CCC1)C(=O)NC(CCCNC(=N)N)C(=O)c1nccs1` (stereo not shown) [Cpd. 7 ketothiazole], the Ki [1, 6] is reported as 141 nM, the “matriptase activity, Mean … S6a” value ([1]; inhibitor 0.1 nM) is reported as 103.606 and the “matriptase activity, Mean … S6a” value ([1]; inhibitor 0.2 nM) is reported as 101.185. For the same molecule, the “matriptase activity, Mean … S6a” value ([1]; inhibitor 1 nM) was 109.016, the “matriptase activity, Mean … S6a” value ([1]; inhibitor 10 nM) was 101.829 and the “matriptase activity, Mean … S6a” value ([1]; inhibitor 100 nM) was 75.1932. For the same molecule, the “matriptase activity, Mean … S6a” value ([1]; inhibitor 1000 nM) was 21.355, the “matriptase activity, Mean … S6a” value ([1]; inhibitor 50000 nM) was 0.4637 and the “matriptase activity, Mean … S6a” value ([1]; inhibitor 500000 nM) was -0.1803. For the same molecule, the Ki [2, 7] was 98.7 nM, the “factor Xa activity, Mean … S6c” value ([2]; inhibitor 0.02 nM) was 95.3485 and the “factor Xa activity, Mean … S6c” value ([2]; inhibitor 0.04 nM) was 90.4387. The “factor Xa activity, Mean … S6c” value ([2]; inhibitor 0.2 nM) was 87.8566, the “factor Xa activity, Mean … S6c” value ([2]; inhibitor 2 nM) was 87.8545 and the “factor Xa activity, Mean … S6c” value ([2]; inhibitor 20 nM) was 82.4299. For the same molecule, the “factor Xa activity, Mean … S6c” value ([2]; inhibitor 200 nM) was 52.1976, the “factor Xa activity, Mean … S6c” value ([2]; inhibitor 10000 nM) was 2.584 and the “factor Xa activity, Mean … S6c” value ([2]; inhibitor 100000 nM) was 3.101. For the same molecule, the “Ki Thrombin” value [3, 8] was “n.i”, the “thrombin activity, Mean … S6b” value ([3]; inhibitor 0.02 nM) was 96.7111 and the “thrombin activity, Mean … S6b” value ([3]; inhibitor 0.04 nM) was 101.49. For the same molecule, the “thrombin activity, Mean … S6b” value ([3]; inhibitor 0.2 nM) was 101.233, the “thrombin activity, Mean … S6b” value ([3]; inhibitor 2 nM) was 107.554 and the “thrombin activity, Mean … S6b” value ([3]; inhibitor 20 nM) was 101.388. The “thrombin activity, Mean … S6b” value ([3]; inhibitor 200 nM) was 101.233, the “thrombin activity, Mean … S6b” value ([3]; inhibitor 10000 nM) was 98.2014 and the “thrombin activity, Mean … S6b” value ([3]; inhibitor 100000 nM) was 83.6589.
In the case of `NC(N)=Nc1ccc(C(=O)Oc2ccc(CC(=O)O)cc2)cc1` [FOY-251, reference compound], the “matriptase activity, Mean (Fig. 2b)” value ([1]; 0.05 nM) is reported as 110.25, the “matriptase activity, Mean (Fig. 2b)” value ([1]; 0.5 nM) is reported as 111.62 and the “matriptase activity, Mean (Fig. 2b)” value ([1]; 5 nM) is reported as 106.849. The “matriptase activity, Mean (Fig. 2b)” value ([1]; 50 nM) was 97.213, the “matriptase activity, Mean (Fig. 2b)” value ([1]; 500 nM) was 35.5692 and the “matriptase activity, Mean (Fig. 2b)” value ([1]; 5000 nM) was 1.606. The “matriptase activity, Mean (Fig. 2b)” value ([1]; 50000 nM) was 0.2362, the “matriptase activity, Mean (Fig. 2b)” value ([1]; 500000 nM) was 0.1417 and the Ki [1, 6] was 173 nM. The in vivo half-life [5] was 1 to 1.67 h, the “factor Xa activity, Mean (Fig. 2d)” value ([2]; 0.02 nM) was 91.2533 and the “factor Xa activity, Mean (Fig. 2d)” value ([2]; 0.04 nM) was 91.3991. The “factor Xa activity, Mean (Fig. 2d)” value ([2]; 0.2 nM) was 72.8853, the “factor Xa activity, Mean (Fig. 2d)” value ([2]; 2 nM) was 86.5885 and the “factor Xa activity, Mean (Fig. 2d)” value ([2]; 20 nM) was 82.2151. For the same molecule, the “factor Xa activity, Mean (Fig. 2d)” value ([2]; 200 nM) was 72.5938, the “factor Xa activity, Mean (Fig. 2d)” value ([2]; 10000 nM) was 34.986 and the “factor Xa activity, Mean (Fig. 2d)” value ([2]; 100000 nM) was 16.3265. The Ki [2, 7] was 697 nM, the “thrombin activity, Mean (Fig. 2c)” value ([3]; 0.01 nM) was 101.844 and the “thrombin activity, Mean (Fig. 2c)” value ([3]; 0.02 nM, 0 nM = 100) was 101.898. The “thrombin activity, Mean (Fig. 2c)” value ([3]; 0.04 nM, 0 nM = 100) was 101.898, the “thrombin activity, Mean (Fig. 2c)” value ([3]; 0.2 nM, 0 nM = 100) was 101.356 and the “thrombin activity, Mean (Fig. 2c)” value ([3]; 2 nM, 0 nM = 100) was 99.0781. For the same molecule, the “thrombin activity, Mean (Fig. 2c)” value ([3]; 20 nM, 0 nM = 100) was 102.277, the “thrombin activity, Mean (Fig. 2c)” value ([3]; 10000 nM, 0 nM = 100) was 93.0588 and the “thrombin activity, Mean (Fig. 2c)” value ([3]; 100000 nM, 0 nM = 100) was 44.1974. For the same molecule, the Ki [3, 8] was > 50000 nM.
